Each structure is given as a SMILES string. Counter-ions that a name gives are not always drawn. Like-named read-outs stand apart in the source and are kept apart here. Bounds are passed on as bounds.

The target in one data set is T1, PDE10A (Homo sapiens, UniProt Q9Y233).
T1 construct: made in house; host or cells: Sf9 insect cells (baculovirus, pVL1393)
As to the kind of experiment: Activity of inhibiting PDE10A activity ([3H]cAMP decomposition inhibiting test). The class given is biochemical. The following applies: for inhibition at 1 µM: read-out: [3H] cAMP decomposition inhibition rate (%); for IC50: read-out: IC50 (concentration at which to inhibit [3H]cAMP decomposition by 50%). The protocol: Activity of Inhibiting PDE10A Activity (^3H]cAMP Decomposition Inhibiting Test)
PCR was performed using DNAs having base sequences described in SEQ ID NO. 1 and SEQ ID NO. 2 as primers and human kidney cDNA as a template to prepare a plasmid containing amplified fragments. The plasmid was cleaved with restriction endonucleases Pst I and Xba I to obtain a Pst I-Xba I fragment of 0.7 kb.
Meanwhile, Est clone (Cosmo Bio, Tokyo) of GenBank, ACCESSION WO 4835 was cleaved with restriction endonucleases Kpn I and Pst I to obtain a Kpn I-Pst I fragment of 1.5 kb.
The resulting Pst I-Xba I fragment of 0.7 kb and Kpn I-Pst I fragment of 1.5 kb were subcloned in a Kpn I-Xba I site of pBluescript II KS(−) (STRATAGENE, La Jolla, Calif., USA),to construct a plasmid having a cDNA fragment completely including a catalyst region of PDE10A. Subsequently, the plasmid was cleaved with restriction endonucleases Kpn I and Not I to obtain a Kpn I-Not I fragment of 2.2 kb.
The resulting Kpn I-Not I fragment of 2.2 kb and a linker having a BamH I-Kpn I cleavage surface prepared by synthetic DNA having base sequences described in SEQ ID NOS. 3 and 4 were subcloned in a BamH I-Not I site of pVL1393 (PharMingen, San Diego, Calif., USA) to obtain a plasmid for preparation of Baculovirus. The plasmid contains a DNA encoding a peptide in which methionine, FLAG tag and a peptide having a 64th to 779th amino acid sequence of PDE10A [GenBank, ACCESSION NP 006652: Gene, vol. 234, p. 109 (1999), J. Biol. Chem., vol. 274, p. 18438 (1999)] are bound in the order.
The above gene recombinational manipulation was performed according to the method described in Molecular Cloning, 2nd edition, Cold Spring Harbor Laboratory Press, New York (1989).
The expression of PDE10A was conducted according to the Baculovirus expression vector system manual (PharMingen) using insect cells. As insect cells, Sf9 cells (Asahi Technoglass, Tokyo) were used. Sf9 cells were infected with a supernatant (co-transfection sup) containing PDE10A expression virus prepared according to the manual, and cultured at 27° C. for 4 days. The cells were recovered, washed with a phosphate-buffered saline (PBS), and then suspended in an extraction solution [20 mmol/L Tris-acetate (pH 7.5), 2 mmol/L MgCl2, 1 mmol/L dithiothreitol, 1 mmol/L ethylenediaminetetraacetic acid (EDTA), 0.25 mol/L sucrose, 250 unit/mL aprotinin, 40 μg/mL phenylmethylsulfonyl fluoride, and 1 μg/mL pepstatin A]. The cells were disrupted in ice with the maximum output under conditions of 5 seconds and five times using an ultrasonic disruption machine (TOMY model UR-200R, TOMY, Tokyo). A soluble fraction was obtained by centrifugation under 10,000 rpm of the fraction at 4° C. for 30 minutes, and the resulting soluble fraction was used for measuring the PDE activity.
The PDE activity was measured according to the method described in Methods Enzymol., vol. 159, p. 457 (1988).
Using [^3H]cAMP as a substrate, an enzyme reaction was conducted in a reaction solution containing 300 μL of 50 mmol/L N,N-bis (2-hydroxyethyl)-2-aminoethanesulfonic acid (pH 7.2), 1 mmol/L MgCl2 and 0.1 mmol/L ethylene glycol-bis (β-aminoethyl ether)-N,N,N′,N′-tetraacetic acid: EGTA). The concentration of the substrate was 0.2 μmol/L. To 95 μL of an enzyme dilute solution were added 5 μL of a test compound (DMSO solution) and 200 μL of a substrate solution. The mixture was incubated at 30° C. for 20 minutes, and then HCl was added to stop the reaction. The reaction product (5′-AMP) was converted to adenosine using 5′-nucleotidase, and separated the unreacted product from the reactant by DEAE-Sephadex A-25 column (Amersham Pharmacia Biotech, Uppsala, Sweden). The elute was moved to scintillation vials, 6 mL of Ultima Gold (Packard Instrument, Meriden, Conn., USA) was added, and the radioactivity was measured for 2 minutes using a liquid scintillation counter (Beckman LS6500, Beckman, Tokyo),. […]

Setting [1] is: Test compound concentration 1 μmol/L, substrate [3H]cAMP 0.2 μmol/L.

T1 sequence (Q9Y233 340-1055): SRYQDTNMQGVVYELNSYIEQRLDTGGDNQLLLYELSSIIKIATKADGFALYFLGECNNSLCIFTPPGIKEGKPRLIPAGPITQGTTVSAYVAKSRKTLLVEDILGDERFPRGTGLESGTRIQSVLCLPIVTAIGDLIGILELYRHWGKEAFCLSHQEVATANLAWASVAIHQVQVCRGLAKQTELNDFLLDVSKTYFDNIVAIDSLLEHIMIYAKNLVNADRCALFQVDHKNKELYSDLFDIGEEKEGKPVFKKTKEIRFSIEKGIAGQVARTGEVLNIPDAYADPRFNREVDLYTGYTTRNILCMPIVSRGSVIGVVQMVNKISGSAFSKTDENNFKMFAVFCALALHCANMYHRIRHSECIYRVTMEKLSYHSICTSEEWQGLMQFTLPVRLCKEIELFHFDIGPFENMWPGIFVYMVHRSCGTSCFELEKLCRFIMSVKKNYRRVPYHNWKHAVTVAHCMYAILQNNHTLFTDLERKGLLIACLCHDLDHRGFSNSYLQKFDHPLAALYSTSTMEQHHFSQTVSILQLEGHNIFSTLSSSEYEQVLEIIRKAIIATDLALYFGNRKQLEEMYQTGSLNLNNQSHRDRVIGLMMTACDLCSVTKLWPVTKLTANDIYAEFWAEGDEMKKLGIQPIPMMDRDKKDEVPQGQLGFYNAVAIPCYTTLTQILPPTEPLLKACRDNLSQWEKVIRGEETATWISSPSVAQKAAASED

In general, inhibition refers to how much of the control response was suppressed. In general, melting point refers to the temperature, or range, at which the solid turns liquid. In turn, `COc1ccc(-c2ccc(-c3nc4ccc(F)cc4c(CO)c3C)cc2)c(OC)c1` [Compound 8, 2-(2′,4′-dimethoxybiphenyl-4-yl)-6-fluoro-4-hydroxym ethyl-3-methylquinoline] returned a melting point of 205 to 207 °C. On PDE10A (setting [1]), the inhibition at 1 µM was 68%. Consider `Cc1c(-c2ccc(-c3ccccc3F)cc2)nc2ccc(F)cc2c1CO` [Compound 6, 6-Fluoro-2-(2′-fluorobiphenyl-4-yl)-4-hydroxymethyl-3-methylquinoline], for which the inhibition at 1 µM on PDE10A (setting [1]) was found to be 91%. The IC50 on PDE10A (substrate [3H]cAMP 0.2 μmol/L) turned out to be 98 nM. `CCOc1cccc(-c2ccc(-c3nc4ccc(F)cc4c(CO)c3C)cc2)c1` [Compound 4, 2-(31-Ethoxybiphenyl-4-yl)-6-fluoro-4-hydroxymethyl-3-methylquinoline] came in with a melting point of 199 to 200 °C. In addition, the inhibition at 1 µM at PDE10A (setting [1]) was 83%. Regarding `Cc1c(-c2ccc(-c3ccccc3CN3CCN(c4ccccc4)CC3)cc2)nc2ccc(F)cc2c1C(=O)O` [L, 6-Fluoro-3-methyl-2-[21-(4-phenylpiperazin-1-yl)methylbiphenyl-4-yl]quinoline-4-carboxylic acid], the melting point lay within 189 to 190 °C. Further, the inhibition at 1 µM on PDE10A (setting [1]) stood at 99%. For the same compound, the IC50 at PDE10A (substrate [3H]cAMP 0.2 μmol/L) was determined as 21 nM. For the compound `Cc1ccccc1-c1ccc(-c2nc3ccc(F)cc3c(C(=O)O)c2C)cc1` [H, 6-Fluoro-3-methyl-2-(2′-methylbiphenyl-4-yl)quinoline-4-carboxylic acid], the melting point was 260 °C (dec.). The inhibition at 1 µM at PDE10A (setting [1]) was 97%. For the same compound, the IC50 at PDE10A (substrate [3H]cAMP 0.2 μmol/L) stood at 47 nM.

Take `Cc1c(-c2ccc(-c3ccccc3-c3ccccc3)cc2)nc2ccc(F)cc2c1C#N` [Compound 17, 6-Fluoro-3-methyl-2-([1,1′;2′,1″-terphenyl]-4-yl)quinoline-4-carbonitrile]: the melting point lay within 153 to 155 °C. Moreover, on PDE10A (setting [1]), the inhibition at 1 µM worked out at 70%. Besides, the IC50 at PDE10A (substrate [3H]cAMP 0.2 μmol/L) worked out at 373 nM. The like results for `Cc1c(-c2ccc(-c3ccccc3CN3CCOCC3)cc2)nc2ccc(F)cc2c1C(=O)O` [M, 6-Fluoro-3-methyl-2-(2′-morpholinomethylbiphenyl-4-yl)quinoline-4-carboxylic acid] were, in that order, 163 to 165 °C, 98% and 27 nM. For the compound `COc1ccccc1N1CCN(c2nc3ccc(F)cc3c(CO)c2C)CC1` [Compound 20, 6-Fluoro-4-hydroxymethyl-2-[4-(2-methoxyphenyl)piperazin-1-yl]-3-methylquinoline], the melting point is 190 to 191 °C. `COC(=O)c1c(C)c(-c2ccc(-c3ccccc3-c3ccccc3)cc2)nc2ccc(F)cc12` [Compound 15, Methyl 6-fluoro-3-methyl-2-([1,1′:2′,1″-terphenyl]-4-yl)quinoline-4-carboxylate] registered a melting point of 164 to 165 °C.

Take `COc1ccccc1-c1ccc(-c2nc3ccc(F)cc3c(CO)c2C)cc1` [Compound 2, 6-Fluoro-4-hydroxymethyl-2-(2′-methoxybiphenyl-4-yl)-3-methylquinoline]: the melting point fell in the range of 178 to 179 °C. For the same compound, the inhibition at 1 µM at PDE10A (setting [1]) amounted to 97%. The IC50 on PDE10A (substrate [3H]cAMP 0.2 μmol/L) came to 66 nM.

Consider `Cc1c(-c2ccc(-c3ccccc3-c3ccccc3)cc2)nc2ccc(F)cc2c1C(=O)O` [Compound C, 6-Fluoro-3-methyl-2-([1,1′:2′,1″-terphenyl)-4-yl)quinoline-4-carboxylic acid], for which the melting point was > 300 °C. Besides, the inhibition at 1 µM on PDE10A stood at 99%. Moreover, on PDE10A (substrate [3H]cAMP 0.2 μmol/L), the IC50 turned out to be 0.9 nM. Turning to `COc1ccc(F)cc1-c1ccc(-c2nc3ccc(F)cc3c(CO)c2C)cc1` [Compound 7, 6-Fluoro-2-(5′-fluoro-2′-methoxybiphenyl-4-yl)-4-hydroxymethyl-3-methylquinoline], the melting point lay in the range of 202 to 203 °C. For the same compound, the inhibition at 1 µM at PDE10A (setting [1]) was determined as 97%. The IC50 at PDE10A (substrate [3H]cAMP 0.2 μmol/L) is 34 nM.

`Cc1c(-c2ccc(-c3ccccc3C=O)cc2)nc2ccc(F)cc2c1CO` [Compound 9] displayed a melting point of 192 to 194 °C. As to `Cc1c(-c2ccc(Br)cc2)nc2ccc(F)cc2c1C(=O)O`, the melting point is > 300 °C. In turn, `Cc1c(-c2ccc(-c3ccccc3-c3ccccc3)cc2)nc2ccc(F)cc2c1N` yielded a melting point of 227 to 229 °C. The compound `Cc1c(-c2ccc(-c3ccccc3-c3ccccc3)cc2)nc2ccc(F)cc2c1CO` [Compound 1, 6-Fluoro-4-hydroxymethyl-3-methyl-2-([1,1′:2′,1″-terphenyl]-4-yl)quinoline] had a melting point of 121 to 123 °C. Further, the inhibition at 1 µM at PDE10A (setting [1]) was 99%. Besides, the IC50 at PDE10A (substrate [3H]cAMP 0.2 μmol/L) amounted to 4.2 nM. Consider `COc1ccc(-c2ccc(-c3nc4ccc(F)cc4c(C(=O)O)c3C)cc2)c(OC)c1`, for which the melting point was > 300 °C. On the same count and under the same terms, in the case of `COc1ccc(F)cc1-c1ccc(-c2nc3ccc(F)cc3c(C(=O)O)c2C)cc1` it was > 300 °C; in that of `Cc1c(-c2ccc(-c3ccccc3CNCCO)cc2)nc2ccc(F)cc2c1CO` (as salt: hydrochloride), 203 to 205 °C. Turning to `CC(=O)c1c(C)c(-c2ccc(-c3ccccc3-c3ccccc3)cc2)nc2ccc(F)cc12` [Compound 16, 4-Acetyl-6-fluoro-3-methyl-2-([1,1′:2′,11″-terphenyl]-4-yl)quinoline], on PDE10A, the inhibition at 1 µM is 80%. For `CCOc1ccccc1-c1ccc(-c2nc3ccc(F)cc3c(C(=O)O)c2C)cc1` [I, 2-(2′-Ethoxybiphenyl-4-yl)-6-fluoro-3-methylquinoline-4-carboxylic acid], the inhibition at 1 µM at PDE10A (setting [1]) is 99%. At PDE10A (substrate [3H]cAMP 0.2 μmol/L), the IC50 worked out at 5.5 nM. In the case of `Cc1c(-c2ccc(Br)cc2)nc2ccc(F)cc2c1CO` [Compound 21, 2-(4-Bromophenyl)-6-fluoro-4-hydroxymethyl-3-methylquinoline], the melting point lay within 222 to 240 °C. The compound `CCOc1ccc(-c2ccc(-c3nc4ccc(F)cc4c(CO)c3C)cc2)cc1` [Compound 5, 2-(4′-Ethoxybiphenyl-4-yl)-6-fluoro-4-hydroxymethyl-3-methylquinoline] came in with a melting point of 211 to 212 °C. Same read-out and setting: the value for `COC(=O)c1c(C)c(N2CCN(c3ccccc3OC)CC2)nc2ccc(F)cc12` [Compound 19, Methyl 6-Fluoro-2-[4-(2-methoxyphenyl)piperazin-1-yl]-3-methylquinoline-4-carboxylate] was 128 to 129 °C; that for `Cc1c(-c2ccc(-c3ccccc3CN3CCOCC3)cc2)nc2ccc(F)cc2c1CO` (as salt: hydrochloride) [Compound 12, 6-Fluoro-4-hydroxymethyl-3-methyl-2-(2′-morpholinomethylbiphenyl-4-yl)quinoline dihydrochloride] was 190 to 192 °C.

With `CNCc1ccccc1-c1ccc(-c2nc3ccc(F)cc3c(CO)c2C)cc1` [Compound 10, 6-Fluoro-4-hydroxymethyl-3-methyl-2-[2′-(methylamino)methylbiphenyl-4-yl]quinoline], the melting point was 193 to 195 °C.

Source of the values: US20060111368A1, “Phosphodiesterase inhibitor” (Kyowa Hakko Kogyo Co., Ltd., priority 2002, published 2006).
